For the assay, the system named is BDF1 mice, P388 leukemia ip, median survival T/C. In words: NCI In Vivo Anticancer Drug Screen. Data for tumor model P388 Leukemia (intraperitoneal) in B6D2F1 (BDF1) mice. The following applies: endpoint: median survival time, higher = longer survival. In short, it runs like this:
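Antitumour effect was judged in vivo: survival in drug-treated mice, normalised to that of vehicle-dosed controls, gives the reported T/C.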

Where [1] appears, read: dose: 6.25 mg/kg/injection, schedule: Q01DX009 (ip), vehicle: Klucel (hydroxypropylcellulose) (HPC).
The mark [2] stands for this setting: dose: 12.5 mg/kg/injection, schedule: Q01DX009 (ip), vehicle: Klucel (hydroxypropylcellulose) (HPC).
The mark [3] stands for this setting: dose: 100.0 mg/kg/injection, schedule: Q04DX003 (ip), vehicle: Klucel (hydroxypropylcellulose) (HPC).
Where [4] appears, read: dose: 50.0 mg/kg/injection, schedule: Q01DX009 (ip), vehicle: saline with Tween-80.
Where [5] appears, read: dose: 50.0 mg/kg/injection, schedule: Q01DX009 (ip), vehicle: saline.
Where [6] appears, read: dose: 100.0 mg/kg/injection, schedule: Q01DX009 (ip), vehicle: saline.
[7] abbreviates: dose: 200.0 mg/kg/injection, schedule: Q01DX009 (ip), vehicle: saline with Tween-80.
[8] abbreviates: dose: 3.13 mg/kg/injection, schedule: Q01DX009 (ip), vehicle: saline with Tween-80.
Setting [9] is: dose: 6.25 mg/kg/injection, schedule: Q01DX009 (ip), vehicle: saline with Tween-80.
Setting [10] is: dose: 12.5 mg/kg/injection, schedule: Q01DX009 (ip), vehicle: saline with Tween-80.
Setting [11] is: dose: 12.5 mg/kg/injection, schedule: Q04DX003 (ip), vehicle: saline with Tween-80.
The mark [12] stands for this setting: dose: 25.0 mg/kg/injection, schedule: Q01DX009 (ip), vehicle: saline with Tween-80.
The mark [13] stands for this setting: dose: 25.0 mg/kg/injection, schedule: Q04DX003 (ip), vehicle: saline with Tween-80.
The mark [14] stands for this setting: dose: 100.0 mg/kg/injection, schedule: Q04DX003 (ip), vehicle: saline with Tween-80.
The mark [15] stands for this setting: dose: 100.0 mg/kg/injection, schedule: Q01DX009 (ip), vehicle: saline with Tween-80.

Several values for one entry are separate records, joined by “and”; a condition that tells them apart may be missing. Identical values can stand only once. Inconclusive results and toxic doses are left out.

Regarding `O=C1/C(=C\c2ccco2)SC(=S)N1c1ccccc1`, the T/C was 96 % of control (dose: 10.0 mg/kg/injection, schedule: Q01DX009 (ip), vehicle: saline with Tween-80); 89 % of control (dose: 20.0 mg/kg/injection, schedule: Q01DX009 (ip), vehicle: saline with Tween-80); 98 % of control (dose: 40.0 mg/kg/injection, schedule: Q01DX009 (ip), vehicle: saline with Tween-80).

Regarding `CCCCCCCCCCCCCCCCCCOc1ccccn1`, the T/C (dose: 3.12 mg/kg/injection, schedule: Q01DX009 (ip), vehicle: Klucel (hydroxypropylcellulose) (HPC)) was 100 % of control; the T/C under setting [1] was 104 % of control; the T/C under setting [2] was 104 % of control; the T/C under setting [3] is 95 % of control; the T/C (dose: 200.0 mg/kg/injection, schedule: Q04DX003 (ip), vehicle: Klucel (hydroxypropylcellulose) (HPC)) was 100 % of control; the T/C (dose: 400.0 mg/kg/injection, schedule: Q01DX009 (ip), vehicle: Klucel (hydroxypropylcellulose) (HPC)) was 89 % of control. Moreover, the T/C (dose: 400.0 mg/kg/injection, schedule: Q04DX003 (ip), vehicle: Klucel (hydroxypropylcellulose) (HPC)) was 95 % of control.

Turning to `CCCCOC1OCN(CCOC)CC1(C)C` (stereo unspecified), the T/C reads like this: under setting [4], 109 % of control; under setting [5], 116 % of control; under setting [6], 109 % of control; under setting [7], 153 % of control; (dose: 200.0 mg/kg/injection, schedule: Q01DX009 (ip), vehicle: saline) 118 % of control.

As to `C[S+](C)CC(=O)c1ccccc1`, the T/C is, setting by setting: (dose: 50.0 mg/kg/injection, schedule: Q01DX001 (ip), vehicle: saline) 116 % of control; (dose: 50.0 mg/kg/injection, schedule: Q04DX003 (ip), vehicle: saline) 91 % of control; (dose: 100.0 mg/kg/injection, schedule: Q01DX001 (ip), vehicle: saline) 116 % of control; (dose: 100.0 mg/kg/injection, schedule: Q04DX003 (ip), vehicle: saline) 95 % of control; (dose: 200.0 mg/kg/injection, schedule: Q01DX001 (ip), vehicle: saline) 112 % of control; (dose: 200.0 mg/kg/injection, schedule: Q04DX003 (ip), vehicle: saline) 95 % of control.

As to `CS(=O)(=O)OCCN(CCOS(C)(=O)=O)c1ccc(C=O)cc1`, the T/C runs as follows: (dose: 3.0 mg/kg/injection, schedule: Q04DX003 (ip), vehicle: saline with Tween-80) 227 % of control; under setting [8], 210 % of control; (dose: 5.0 mg/kg/injection, schedule: Q04DX003 (ip), vehicle: saline with Tween-80) 177 % of control; under setting [9], 229 % of control; (dose: 8.0 mg/kg/injection, schedule: Q01DX009 (ip), vehicle: saline with Tween-80) 237 % of control; (dose: 8.0 mg/kg/injection, schedule: Q04DX003 (ip), vehicle: saline with Tween-80) 181 % of control. In addition, the T/C is 195 % of control (dose: 8.25 mg/kg/injection, schedule: Q04DX003 (ip), vehicle: saline with Tween-80); 212 % of control (dose: 12.0 mg/kg/injection, schedule: Q01DX009 (ip), vehicle: saline with Tween-80); 231 % of control and 176 % of control under setting [10]; 212 % of control under setting [11]; 250 % of control (dose: 18.0 mg/kg/injection, schedule: Q01DX009 (ip), vehicle: saline with Tween-80); 250 % of control (dose: 18.75 mg/kg/injection, schedule: Q04DX003 (ip), vehicle: saline with Tween-80). The T/C under setting [12] was 86 % of control.

As to `O=[n+]1ccn2ccccc2c1`, the T/C was 95 % of control (dose: 25.0 mg/kg/injection, schedule: Q01DX009 (ip), vehicle: saline); 114 % of control under setting [5]; 95 % of control (dose: 65.0 mg/kg/injection, schedule: Q01DX009 (ip), vehicle: saline); 100 % of control (dose: 75.0 mg/kg/injection, schedule: Q04DX003 (ip), vehicle: saline); 108 % of control under setting [6]; 90 % of control (dose: 150.0 mg/kg/injection, schedule: Q04DX003 (ip), vehicle: saline).

As for `CCCCCCCCCCCCCCC(F)C(=O)O` (stereo unspecified), the T/C reads like this: under setting [1], 100 % of control; under setting [2], 91 % of control; (dose: 25.0 mg/kg/injection, schedule: Q01DX009 (ip), vehicle: Klucel (hydroxypropylcellulose) (HPC)) 91 % of control and 95 % of control; under setting [3], 95 % of control.

Turning to `FC(F)(F)C1=N/C(=C2\N=C(C(F)(F)F)N=C2Cl)C(Cl)=N1`, the T/C is, setting by setting: (dose: 0.39 mg/kg/injection, schedule: Q04DX003 (ip), vehicle: saline with Tween-80) 100 % of control; (dose: 0.78 mg/kg/injection, schedule: Q04DX003 (ip), vehicle: saline with Tween-80) 114 % of control; (dose: 1.56 mg/kg/injection, schedule: Q01DX009 (ip), vehicle: saline with Tween-80) 104 % of control; (dose: 1.56 mg/kg/injection, schedule: Q04DX003 (ip), vehicle: saline with Tween-80) 100 % of control and 110 % of control; (dose: 3.12 mg/kg/injection, schedule: Q01DX009 (ip), vehicle: saline with Tween-80) 116 % of control; (dose: 3.12 mg/kg/injection, schedule: Q04DX003 (ip), vehicle: saline with Tween-80) 96 % of control and 100 % of control. For the same compound, the T/C is 116 % of control under setting [9]; 91 % of control and 100 % of control (dose: 6.25 mg/kg/injection, schedule: Q04DX003 (ip), vehicle: saline with Tween-80); 111 % of control under setting [10]; 88 % of control under setting [11]; 94 % of control under setting [12]; 88 % of control under setting [13].

For the compound `NC(=O)NC(=O)/C=C/C(=O)O`, the T/C under setting [13] was 91 % of control; the T/C (dose: 50.0 mg/kg/injection, schedule: Q04DX003 (ip), vehicle: saline with Tween-80) is 100 % of control; the T/C under setting [14] was 91 % of control.

With `CC(=O)Nc1cccc([N+](=O)[O-])c1`, the T/C was 100 % of control under setting [4], 100 % of control under setting [15] and 104 % of control under setting [7].

On to `COc1cc2c3cc1Oc1c(OC)c(OC)cc4c1C(Cc1cc5c(c(c1)Oc1ccc(cc1)CC3N(C)CC2)OCO5)N(C)CC4` (stereo unspecified), for which the T/C is, setting by setting: (dose: 5.0 mg/kg/injection, schedule: Q01DX010 (ip), vehicle: saline) 90 % of control; (dose: 20.0 mg/kg/injection, schedule: Q01DX010 (ip), vehicle: saline) 104 % of control; (dose: 40.0 mg/kg/injection, schedule: Q01DX010 (ip), vehicle: saline) 95 % of control.

For the compound `O=C1OC2(CCCCC2)OC(=O)C1=C/C=C/c1ccc([N+](=O)[O-])o1`, the T/C is, setting by setting: under setting [8], 100 % of control; under setting [9], 98 % of control; under setting [10], 91 % of control and 121 % of control; under setting [12], 97 % of control and 99 % of control; under setting [4], 112 % of control.

Turning to `CCC(=O)O[C@H]1CC[C@H]2[C@@H]3CCC4=CC(=O)C[C@]4(C)[C@H]3CC[C@]12C`, the T/C was 100 % of control under setting [4]; 100 % of control under setting [15]; 110 % of control under setting [14]; 113 % of control under setting [7]; 105 % of control (dose: 200.0 mg/kg/injection, schedule: Q04DX003 (ip), vehicle: saline with Tween-80).

As to `NC1(C(=O)O)CCCc2ccc(N(CCCl)CCCl)cc21` (stereo unspecified), the T/C is, setting by setting: (dose: 16.5 mg/kg/injection, schedule: Q04DX003 (ip), vehicle: saline with Tween-80) 263 % of control and 272 % of control; under setting [13], 272 % of control; (dose: 37.5 mg/kg/injection, schedule: Q04DX003 (ip), vehicle: saline with Tween-80) 177 % of control.

Turning to `O=[N+]([O-])c1cccc2ccc(N/N=C/c3ccccc3O)nc12`, the T/C (dose: 10.0 mg/kg/injection, schedule: Q01DX009 (ip), vehicle: Klucel (hydroxypropylcellulose) (HPC)) is 96 % of control; the T/C (dose: 20.0 mg/kg/injection, schedule: Q01DX009 (ip), vehicle: Klucel (hydroxypropylcellulose) (HPC)) was 122 % of control; the T/C (dose: 40.0 mg/kg/injection, schedule: Q01DX009 (ip), vehicle: Klucel (hydroxypropylcellulose) (HPC)) is 111 % of control.
